Patent US11634712B2, “Nucleic acid simultaneously inhibiting expression of mTOR gene and STAT3 gene” (CURIGIN CO., LTD., priority 2017, dated 2023)
d = 2'-deoxy (DNA); r = 2'-OH (RNA)

Legend:
[1] = system: mTOR gene; assay: mTOR expression after mTOR siRNA and/or STAT3 siRNA transfection of A549, real-time PCR; assay type: cell-based, human; conditions: A549, 48 hours after transfection, relative to control siRNA nc2 = 1.0000
[2] = system: STAT3 gene; assay: STAT3 expression after mTOR siRNA and/or STAT3 siRNA transfection of A549, real-time PCR; assay type: cell-based, human; conditions: A549, 48 hours after transfection, relative to control siRNA nc2 = 1.0000

| Substance | mTOR expression level [1] | STAT3 expression level [2] |
| --- | --- | --- |
| siSTAT3: siRNA targeting the only STAT3; SEQ ID NOS: 24 and 25 (chain 1 UGUUCUCUGAGACCCAUGATT; chain 2 UCAUGGGUCUCAGAGAACATT; sugars from the 5' end r19 d2, backbone not given here) | 1.0507 | 0.6074 |
| simTOR: siRNA targeting the only mTOR; SEQ ID NOs: 22 and 23 (chain 1 GUGGAAACAGGACCCAUGATT; chain 2 UCAUGGGUCCUGUUUCCACTT; sugars from the 5' end r19 d2, backbone not given here) | 0.1980 | 1.0705 |
